The source of these data is ChEMBL document CHEMBL1145327, “Structural insights into monoamine oxidase inhibitory potency and selectivity of 7-substituted coumarins from ligand- and target-based approaches” (J Med Chem, 2006).

Experiment [1] addresses T1, Amine oxidase [flavin-containing] B (Rattus norvegicus, UniProt P19643).
T1 sequence (P19643 whole entry): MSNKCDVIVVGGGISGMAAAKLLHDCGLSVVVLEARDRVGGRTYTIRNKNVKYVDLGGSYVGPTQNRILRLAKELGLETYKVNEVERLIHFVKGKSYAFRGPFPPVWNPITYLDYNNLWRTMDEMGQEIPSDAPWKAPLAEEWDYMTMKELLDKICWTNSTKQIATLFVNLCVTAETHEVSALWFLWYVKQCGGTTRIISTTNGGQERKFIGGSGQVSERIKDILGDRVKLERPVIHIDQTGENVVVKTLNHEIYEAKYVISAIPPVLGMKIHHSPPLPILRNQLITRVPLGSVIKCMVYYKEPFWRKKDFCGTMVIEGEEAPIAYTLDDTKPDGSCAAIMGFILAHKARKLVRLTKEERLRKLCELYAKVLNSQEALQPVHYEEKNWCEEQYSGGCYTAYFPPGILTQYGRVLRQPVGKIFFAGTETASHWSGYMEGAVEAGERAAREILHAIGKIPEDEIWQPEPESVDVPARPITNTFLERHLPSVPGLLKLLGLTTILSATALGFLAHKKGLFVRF
It counts as mitochondria, Sprague-Dawley, Mitochondria.
Description: Inhibition of Sprague-Dawley rat brain mitochondria MAOB by continuous spectrophotometric assay

Experiment [2] addresses T2, Amine oxidase [flavin-containing] A (Rattus norvegicus, UniProt P21396).
T2 sequence (P21396 whole entry): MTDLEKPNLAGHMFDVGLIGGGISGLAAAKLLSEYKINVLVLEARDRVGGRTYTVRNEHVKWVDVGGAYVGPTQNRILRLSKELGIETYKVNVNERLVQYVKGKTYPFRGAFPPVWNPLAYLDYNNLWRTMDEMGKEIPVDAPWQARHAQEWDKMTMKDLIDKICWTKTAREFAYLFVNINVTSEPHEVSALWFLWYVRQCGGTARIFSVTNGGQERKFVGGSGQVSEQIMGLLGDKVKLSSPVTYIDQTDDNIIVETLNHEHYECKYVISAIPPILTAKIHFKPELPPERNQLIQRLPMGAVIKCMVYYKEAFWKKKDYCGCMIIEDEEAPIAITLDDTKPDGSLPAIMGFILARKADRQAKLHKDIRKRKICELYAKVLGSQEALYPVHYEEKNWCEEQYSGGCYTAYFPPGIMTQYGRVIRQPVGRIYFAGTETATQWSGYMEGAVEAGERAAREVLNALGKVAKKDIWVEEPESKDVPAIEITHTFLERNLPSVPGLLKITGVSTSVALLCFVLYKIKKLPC
The experiment is classed as mitochondria, Sprague-Dawley, Mitochondria.
Description: Inhibition of Sprague-Dawley rat brain mitochondria MAOA by continuous spectrophotometric assay

Turning to `Cc1c(C)c2ccc(OC/C=C/c3ccccc3)cc2oc1=O`, the IC50 in experiment [1] is 0.112 µM. This counts as sub-micromolar.
Take `Cc1c(C)c2ccc(OC[C@@H](O)c3ccccc3)cc2oc1=O`: the IC50 in experiment [2] was 10 µM; in experiment [1], 0.0282 µM.
For `Cc1c(C)c2ccc(OCC(O)c3ccccc3)cc2oc1=O` (racemic) the same measures were 10 µM and 0.0708 µM.
For `Cc1c(C)c2ccc(S(=O)(=O)Cc3ccccc3)cc2oc1=O` the same measures were 18.6 µM and 2.75 µM.
For `Cc1cc2ccc(OCc3ccccc3)cc2oc1=O` the same measures were 5.5 µM and 0.00661 µM.
On to `O=C(OCc1ccc2ccc(=O)oc2c1)c1ccccc1`, for which the results for the IC50 in experiment [2] and in experiment [1] were 9.55 µM and 2.4 µM, respectively.
For `Cc1c(C)c2ccc(OCCOc3ccccc3)cc2oc1=O`, in that order: 10.2 µM and 0.0269 µM.
For `Cc1cc2ccc(OCc3cccc(Cl)c3)cc2oc1=O`, in that order: 12.6 µM and 0.00513 µM.
For `Cc1c(C)c2ccc(OCS(=O)(=O)c3ccccc3)cc2oc1=O` the same measures were 2.82 µM and 0.871 µM.
With `Cc1c(C)c2ccc(CCc3ccccc3)cc2oc1=O`, the IC50 in experiment [2] is 7.08 µM; in experiment [1], 0.457 µM.
On to `Cc1c(C)c2ccc(Oc3ccccc3)cc2oc1=O`, for which, in experiment [1], the IC50 is 3.24 µM.
In the case of `Cc1c(C)c2ccc(OC[C@H](O)c3ccccc3)cc2oc1=O`, the values for the IC50 in experiment [2] and in experiment [1] were 3.24 µM and 0.302 µM, respectively.
For `Cc1c(C)c2ccc(SCc3ccccc3)cc2oc1=O`, in that order: 10 µM and 0.0398 µM.
On to `Cc1ccc(S(=O)(=O)N(C)c2ccc3c(C)c(C)c(=O)oc3c2)cc1`, for which the IC50 in experiment [2] is 4.57 µM.
